Experimental data taken from patent US6288091A, “Antiherpes virus compounds and methods for their preparation and use” (Boehringer Ingelheim Ltd., priority 1999, dated 2001).
pEC50, pIC50: −log10 of the molar value. Like-named read-outs stand apart in the source and are kept apart here.

Experiments:
HSV-1 helicase-primase = biological target: T1, HSV-1 helicase-primase (Human herpesvirus 1, UniProt P10189+P10236); assay: HSV-1 DNA-dependent ATPase assay (inhibition of HSV-1 helicase-primase); type: biochemical; settings: Group 1 Table 1 entries
T1 construct: made in house; host or cells: Sf21 insect cells triply infected with recombinant baculoviruses (UL5, UL8, UL52)
Procedure, shortened: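 Holoenzyme (UL5/UL8/UL52) expressed in baculovirus-infected Sf21 cells and purified, used at 3 μg/mL with 4 mM ATP and 25 μM primed M13 ssDNA in HEPES pH 7.5, 5.5 mM MgCl2, 3.3% DMSO. Incubated 20 min at 34°. Released phosphate read by malachite green at 650 nm, and activity taken from net absorbance with versus without inhibitor.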

HCMV (strain AD169) = assay: Inhibition of HCMV replication, plaque reduction assay (PRA, Hs-68 cells); type: cell-based, Human Cytomegalovirus (HCMV); settings: read-out: PRA CMV EC50
Procedure, shortened: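 Hs-68 monolayers (80–90% confluent) were infected with ~50 PFU HCMV AD169 for 2 h at 37°, then given compound in DMEM/5% inactivated FBS, refreshed after 4 days and kept 4 more days. Plaques were counted after formaldehyde fixation and crystal violet staining. EC50 derives from percent plaque reduction versus untreated wells.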

[1] = Human betaherpesvirus 5, AD169, Hs68, Group 1 Table 1 entries

T1 sequence (P10192 whole entry): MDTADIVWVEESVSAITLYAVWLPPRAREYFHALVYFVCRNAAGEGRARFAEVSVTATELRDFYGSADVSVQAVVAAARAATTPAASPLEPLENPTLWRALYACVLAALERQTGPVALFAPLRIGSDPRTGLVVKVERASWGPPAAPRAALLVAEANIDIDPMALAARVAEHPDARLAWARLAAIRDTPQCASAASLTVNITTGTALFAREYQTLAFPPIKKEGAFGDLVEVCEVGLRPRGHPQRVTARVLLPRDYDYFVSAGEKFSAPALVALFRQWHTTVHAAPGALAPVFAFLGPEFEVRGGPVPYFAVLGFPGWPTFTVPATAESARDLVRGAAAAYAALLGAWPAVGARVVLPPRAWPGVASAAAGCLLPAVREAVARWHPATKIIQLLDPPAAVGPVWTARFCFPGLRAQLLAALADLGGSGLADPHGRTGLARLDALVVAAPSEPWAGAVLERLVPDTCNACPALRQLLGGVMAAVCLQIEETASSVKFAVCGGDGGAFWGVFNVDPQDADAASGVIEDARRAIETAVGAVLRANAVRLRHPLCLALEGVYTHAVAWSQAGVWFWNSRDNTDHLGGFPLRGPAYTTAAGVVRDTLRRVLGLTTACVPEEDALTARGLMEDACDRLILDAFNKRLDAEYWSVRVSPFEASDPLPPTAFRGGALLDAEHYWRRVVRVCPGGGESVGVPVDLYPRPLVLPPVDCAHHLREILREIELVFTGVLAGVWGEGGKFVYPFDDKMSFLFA
T1 sequence (P10236 whole entry): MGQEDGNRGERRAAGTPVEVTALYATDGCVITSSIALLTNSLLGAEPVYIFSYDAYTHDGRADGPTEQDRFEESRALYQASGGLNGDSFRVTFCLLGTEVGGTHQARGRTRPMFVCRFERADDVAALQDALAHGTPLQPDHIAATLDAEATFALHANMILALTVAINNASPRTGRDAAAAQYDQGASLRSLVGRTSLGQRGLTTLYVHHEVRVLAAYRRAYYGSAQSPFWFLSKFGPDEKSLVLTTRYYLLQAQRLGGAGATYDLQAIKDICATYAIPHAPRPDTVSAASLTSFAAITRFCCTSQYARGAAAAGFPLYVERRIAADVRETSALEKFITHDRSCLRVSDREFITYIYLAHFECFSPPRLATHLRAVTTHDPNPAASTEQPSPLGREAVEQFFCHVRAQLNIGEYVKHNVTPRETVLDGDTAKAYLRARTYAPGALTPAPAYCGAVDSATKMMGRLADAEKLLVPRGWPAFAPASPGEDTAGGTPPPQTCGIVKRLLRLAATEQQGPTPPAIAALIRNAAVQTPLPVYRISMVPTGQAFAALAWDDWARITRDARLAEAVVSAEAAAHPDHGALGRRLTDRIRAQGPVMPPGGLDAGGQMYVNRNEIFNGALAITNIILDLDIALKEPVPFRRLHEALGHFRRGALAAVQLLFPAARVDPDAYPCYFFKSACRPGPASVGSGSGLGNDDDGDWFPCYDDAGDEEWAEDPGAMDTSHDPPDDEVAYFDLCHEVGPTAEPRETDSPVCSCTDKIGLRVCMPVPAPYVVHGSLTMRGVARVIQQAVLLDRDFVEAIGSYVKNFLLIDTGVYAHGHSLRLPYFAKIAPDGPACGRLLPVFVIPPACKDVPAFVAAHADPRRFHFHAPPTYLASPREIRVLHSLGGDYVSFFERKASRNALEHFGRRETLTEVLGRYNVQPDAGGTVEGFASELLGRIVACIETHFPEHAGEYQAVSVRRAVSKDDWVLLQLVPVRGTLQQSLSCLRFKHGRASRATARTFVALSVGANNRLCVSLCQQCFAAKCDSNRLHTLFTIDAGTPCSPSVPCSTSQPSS
T1 sequence (P10189 whole entry): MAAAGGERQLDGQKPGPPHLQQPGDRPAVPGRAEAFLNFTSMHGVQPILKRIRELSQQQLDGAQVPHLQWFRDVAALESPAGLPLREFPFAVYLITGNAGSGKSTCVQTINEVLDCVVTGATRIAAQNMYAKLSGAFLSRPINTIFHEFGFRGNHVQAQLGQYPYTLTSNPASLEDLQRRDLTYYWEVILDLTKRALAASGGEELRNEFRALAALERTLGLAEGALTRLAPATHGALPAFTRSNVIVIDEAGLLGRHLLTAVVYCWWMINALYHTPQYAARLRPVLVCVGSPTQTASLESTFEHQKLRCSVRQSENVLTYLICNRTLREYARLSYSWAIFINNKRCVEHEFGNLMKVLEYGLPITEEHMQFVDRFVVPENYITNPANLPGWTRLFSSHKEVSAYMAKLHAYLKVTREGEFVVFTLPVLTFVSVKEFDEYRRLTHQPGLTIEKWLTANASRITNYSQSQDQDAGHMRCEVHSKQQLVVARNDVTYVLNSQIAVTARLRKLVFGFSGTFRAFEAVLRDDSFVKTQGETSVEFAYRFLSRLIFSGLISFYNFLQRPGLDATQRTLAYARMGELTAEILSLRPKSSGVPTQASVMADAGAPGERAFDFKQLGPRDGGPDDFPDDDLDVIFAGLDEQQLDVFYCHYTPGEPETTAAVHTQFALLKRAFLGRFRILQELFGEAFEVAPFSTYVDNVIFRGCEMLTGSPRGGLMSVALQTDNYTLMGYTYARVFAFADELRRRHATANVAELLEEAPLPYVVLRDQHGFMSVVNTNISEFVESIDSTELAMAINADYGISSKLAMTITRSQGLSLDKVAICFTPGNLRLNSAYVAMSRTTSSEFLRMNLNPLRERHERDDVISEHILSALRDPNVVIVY

| SMILES | pIC50 (HSV-1 helicase-primase) | pEC50 (HCMV (strain AD169); [1]) | pEC50 (HCMV (strain AD169); Group 1 Table 1 entries) | inhibition at 50 µM (HSV-1 helicase-primase; at 50 μM, read-out: inhibition at 50 μM (printed in the HSV-1 IC50 column)) [%] |
| --- | --- | --- | --- | --- |
| Nc1nc(-c2ccc(NC(=O)CN(Cc3ccccc3)C(=O)Cc3ccccc3)cc2)cs1 [Example 26] | 6.30 | 4.82 | – | – |
| Nc1nc(-c2ccc(NC(=O)CN(Cc3ccccc3)C(=O)c3cccnc3)cc2)cs1 [Example 28] | 6.37 | 4.46 | – | – |
| Nc1nc(-c2ccc(NC(=O)CN(Cc3ccccc3)C(=O)c3cc[n+]([O-])cc3)cc2)cs1 [Example 30] | 6.36 | < 4.06 | – | – |
| Nc1nc(-c2ccc(NC(=O)CN(Cc3ccccc3)C(=O)Cc3ccccn3)cc2)cs1 [Example 31] | 5.80 | 5.09 | – | – |
| Nc1nc(-c2ccc(NC(=O)CN(Cc3ccccc3)C(=O)c3cccs3)cc2)cs1 [Example 32] | 6.38 | 5.07 | – | – |
| Nc1nc(-c2ccc(NC(=O)CN(Cc3ccccc3)C(=O)c3cnccn3)cc2)cs1 [Example 33] | 5.96 | 4.70 | – | – |
| Nc1nc(-c2ccc(NC(=O)CN(Cc3ccccc3)C(=O)C3CCCCC3)cc2)cs1 [Example 34] | 7.59 | 4.82 | – | – |
| Nc1nc(-c2ccc(NC(=O)CN(Cc3ccccc3)C(=O)CC3CCCCC3)cc2)cs1 [Example 38] | 7.06 | 5.34 | – | – |
| Nc1nc(-c2ccc(NC(=O)CN(Cc3ccccc3)C(=O)CC3CCCC3)cc2)cs1 [Example 39] | 7.23 | 5.07 | – | – |
| CC(C)(C)C(=O)N(CC(=O)Nc1ccc(-c2csc(N)n2)cc1)Cc1ccccc1 [Example 41] | 6.10 | 4.47 | – | – |
| CC(C)(C)CC(=O)N(CC(=O)Nc1ccc(-c2csc(N)n2)cc1)Cc1ccccc1 [Example 42] | 7.59 | 4.70 | – | – |
| CC(C)C(=O)N(CC(=O)Nc1ccc(-c2csc(N)n2)cc1)Cc1ccccc1 [Example 43] | 5.80 | 4.89 | – | – |
| CC(=O)N(CC(=O)Nc1ccc(-c2csc(N)n2)cc1)Cc1ccccc1 [Example 44] | 5.48 | 4.43 | – | – |
| Nc1nc(-c2ccc(NC(=O)CN(Cc3ccccn3)C(=O)C3CCCCC3)cc2)cs1 [Example 47] | 7.14 | < 3.99 | – | – |
| Nc1nc(-c2ccc(NC(=O)CN(Cc3cccnc3)C(=O)C3CCCCC3)cc2)cs1 [Example 48] | 6.85 | 4.31 | – | – |
| Nc1nc(-c2ccc(NC(=O)CN(CCc3ccccn3)C(=O)C3CCCCC3)cc2)cs1 [Example 50] | 6.22 | 4.89 | – | – |

| SMILES | pIC50 (HSV-1 helicase-primase) | pEC50 (HCMV (strain AD169); [1]) | pEC50 (HCMV (strain AD169); Group 1 Table 1 entries) | inhibition at 50 µM (HSV-1 helicase-primase; at 50 μM, read-out: inhibition at 50 μM (printed in the HSV-1 IC50 column)) [%] |
| --- | --- | --- | --- | --- |
| Nc1nc(-c2ccc(NC(=O)CN(Cc3cccs3)C(=O)C3CCCCC3)cc2)cs1 [Example 51] | 7.20 | 4.96 | – | – |
| C[C@H](c1ccccc1)N(CC(=O)Nc1ccc(-c2csc(N)n2)cc1)C(=O)C1CCCCC1 [Example 52] | 7.06 | 5.22 | – | – |
| C[C@@H](c1ccccc1)N(CC(=O)Nc1ccc(-c2csc(N)n2)cc1)C(=O)C1CCCCC1 [Example 53] | 7.42 | 4.92 | – | – |
| Nc1nc(-c2ccc(NC(=O)CN(CC3CCCCC3)C(=O)c3ccccc3)cc2)cs1 [Example 60] | 5.82 | – | 4.82 | – |
| Nc1nc(-c2ccc(NC(=O)CN(CC3CCCCC3)C(=O)C3CCNCC3)cc2)cs1 [Example 62] | – | 4.42 | – | 29 |
| Nc1nc(-c2ccc(NC(=O)CN(CCc3ccccc3)C(=O)C3CCCC3)cc2)cs1 [Example 66] | 6.40 | < 5.00 | – | – |
| CC(C)(C)OC(=O)NCC(=O)N(CC(=O)Nc1ccc(-c2csc(N)n2)cc1)Cc1ccccc1 [Example 72] | 6.19 | 4.62 | – | – |
| Nc1nc(-c2ccc(NC(=O)CN(CC3CCCCC3)C(=O)Cc3ccccc3)cc2)cs1 [Example 77] | 6.43 | 5.12 | – | – |
| Nc1nc(-c2ccc(NC(=O)CN(CCc3ccccn3)C(=O)C3CCCC3)cc2)cs1 [Example 79] | 6.08 | 4.26 | – | – |
| CC(C)(C)CN(CC(=O)Nc1ccc(-c2csc(N)n2)cc1)C(=O)C1CCCCC1 [Example 80] | 6.02 | 5.02 | – | – |
| Nc1nc(-c2ccc(NC(=O)CN(Cc3ccc(F)cc3)C(=O)c3ccncc3)cc2)cs1 [Example 84] | 6.44 | 4.43 | – | – |
| CC(C)(C)OC(=O)N(CC(=O)Nc1ccc(-c2csc(N)n2)cc1)Cc1ccccc1 [Example 85] | 7.80 | 4.92 | – | – |
| C[C@@H](c1ccccc1)N(CC(=O)Nc1ccc(-c2csc(N)n2)cc1)C(=O)OC(C)(C)C [Example 89] | 7.01 | 4.42 | – | – |
| CC(C)(C)OC(=O)N(CC(=O)Nc1ccc(-c2csc(N)n2)cc1)Cc1ccncc1 [Example 90] | 7.24 | 4.06 | – | – |
| CC(C)(C)NC(=S)N(CC(=O)Nc1ccc(-c2csc(N)n2)cc1)Cc1ccccc1 [Example 93] | 6.80 | < 4.62 | – | – |
